In test [1] the target is Tet(X5). In words: Fluorescence polarisation binding assay of probes with purified TDase. The following applies: 25 nM probe, 5 mM MgCl2, 1 μM FAD, 100 mM Tris pH 7.0, 0.01% Triton X-100. Here is the method:
(§1) NADPH was not included to prevent turnover of the probe to the hydroxylated product, which would likely have a lower binding affinity than the initial probes. Screens were conducted in pH 7.0 buffer with addition of 0.01% Triton-X100 detergent in non-binding plates to minimise adsorption to the plate wells.[45]
(§2) Aliquots of TDases were thawed and serially diluted with the assay buffer (100 mM Tris, pH 7.0 with 0.01% Triton X-100) in a V-bottom 96-well plate (Greiner Bio-One). 12.5 μL of each concentration of enzyme was transferred in quadruplicate to a 384-well black, non-binding microtiter plate (Greiner Bio-One). Aliquots of 2 mM stock of fluorescent probes 5 and 6 in DMSO were thawed and diluted to 50 nM in the assay buffer with 2 μM FAD and 10 mM MgCl2. 12.5 μL of this solution was added to wells containing enzyme. A negative control of 12.5 μL of the probe solution with 12.5 μL of the assay buffer was included on each plate. The plate was briefly centrifuged (1000 rpm), then incubated at ambient temperature for 30 min before measuring the FP response using a PHERAstar FS microplate reader (BMG Labtech) equipped with an FP optic module (excitation = 540 ± 20 nm, Emission = 590 ± 20 nm, 200 flashes per well). ΔmP values were calculated by subtracting the average mP of the negative controls from the mP measured for each well. To calculate Kd values, the derived ΔmP values were plotted as a function of enzyme concentration and a one-site specific binding model was applied (GraphPad Prism 9.4.1).
In general terms: In fluorescence polarisation assays a small probe gives low polarisation when free and higher when bound to something large.

Test [2] deals with T1, Tet(50) (Unknown prokaryotic organism, UniProt A0A059WYP6).
T1 construct: made in house; host or cells: E. coli BL21(DE3)
The description is as above. The protocol:
as §1, §2

For test [3], the target named is T2, Tet(X2) (Bacteroides thetaiotaomicron, UniProt Q93L51).
T2 construct: For Tet(X2), the full-length protein was prepared rather that the Δ1–10 mutant used previously for crystallographic studies; made in house; host or cells: E. coli BL21(DE3)
The description is as above. The protocol:
as §1, §2

Test [4] deals with Tet(X7). The description is as above. The following applies: 25 nM probe, 5 mM MgCl2, 1 μM FAD, 100 mM Tris pH 7.0, 0.01% Triton X-100. The protocol:
as §1, §2

Test [5] concerns the target T3, Tet(X4) (Escherichia coli, UniProt A0A3T0V9Y5). The test is described as above. The protocol:
as §1
as §2, with “Aliquots of 2 mM stock of fluorescent probes 5 and 6 in DMSO were thawed and diluted to 50 nM in the assay buffer with 2 μM FAD and 10 mM MgCl2.” left out

Test [6] has as its target T3, Tet(X4). As to the kind of experiment: Turnover of probe 6 (absorbance and LC-MS). It counts as biochemical. The following applies: with NADPH; decrease of A400 and +16 Da species by LC-MS. The protocol:
To investigate whether fluorescent probe 6 binds to the active site of the Tet(X) enzymes, we carried out docking of the probe with Tet(X4)[8] (ESI Fig. S10 ^†). […] We thus considered that probe 6 may be hydroxylated by Tet(X4) when NADPH was added to initiate turnover. We monitored turnover of probe 6 using an absorbance-readout assay with Tet(X4) adapted from previous studies.[33] A decrease in absorbance at 400 nm was observed, consistent with hydroxylation, but was not seen in a control reaction lacking Tet(X4) (ESI Fig. S11 ^†). This observation was corroborated by LC-MS analysis of the reaction (ESI Fig. S12 ^†). Appearance of an apparently mono-hydroxylated species with mass 989.348 Da (calculated mass: 989.3504 Da) was observed, +16 Da relative to the starting material (measured mass: 973.355 Da; calculated mass: 973.3555 Da).
233 Absorbance Activity Assays […]
243 CLARIOstar Plus Microplate reader. The absorbance was monitored at wavelength […] over the […]
245 calculated by measuring the rate of change of A400 during the initial linear regime. […]
247 function of log10([Inhibitor]) in molar units, and the IC50 was determined as above. […]
252 reaction was monitored by recording the absorbance spectra between 200-800 nm at one-minute […]
261 Quenched samples were stored at -20 °C prior to analysis. Samples were analysed using a Xevo G2-XS […]

From article PMC12056667 (Chemical Science, 2025) come the findings set out here.

Regarding `CN(C)c1ccc2c(-c3ccc(NC(=S)NCC(=O)Nc4cc(N(C)C)c5c(c4O)C(=O)C4=C(O)[C@]6(O)C(=O)C(C(N)=O)=C(O)C(N(C)C)[C@@H]6C[C@@H]4C5)cc3C(=O)[O-])c3ccc(=[N+](C)C)cc-3oc2c1` (stereo partly drawn) [Probe 6, TRITC-glycyl-minocycline], the Kd in test [1] was 10.6 ± 1.3 nM; in test [2] (25 nM probe, 5 mM MgCl2, 1 μM FAD, 100 mM Tris pH 7.0, 0.01% Triton X-100), more than 5000 nM; in test [3], 22.4 ± 4 nM; in test [4] it was 40.5 ± 5.1 nM; in test [5] (Kd, 25 nM probe, 5 mM MgCl2, 1 μM FAD, 100 mM Tris pH 7.0, 0.01% Triton X-100), 17.3 ± 1.9 nM; in test [5] (apparent Kd, with 5 mM MgCl2) it was 18.1 ± 2.4 nM. Moreover, the Kd in test [5] (apparent Kd, without MgCl2) came out at 188 ± 33 nM. The “binding to Tet(50) (in words)” value in test [2] (up to a concentration of 5 μM of enzyme) is “no detectable binding”. Further, the “turnover by Tet(X4) (in words)” value in test [6] is “can be turned over”.
